Experiments:
Type in all cases: cell-based
Conditions in all cases: compounds at 50 nM and 500 nM
IKZF3 = target: T1, IKZF3 (Homo sapiens, UniProt Q96SW2+Q9UKT9); assay: Western blot degradation of IKZF3 in hPBMCs (24 h)
T1 construct: The supernatant was aspirated as the extracted total cell protein; endogenous in cells; host or cells: human peripheral blood mononuclear cells (hPBMCs)
How it was run: (§1)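 Degradation in primary human PBMCs after 24 h compound exposure at 50 and 500 nM. Western blot band intensities, normalised to an internal control protein, expressed as % protein remaining relative to DMSO.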

WEE1 = target: T2, WEE1 (Homo sapiens, UniProt P30291+Q96SW2); assay: Western blot degradation of WEE1 in hPBMCs (24 h)
T2 construct: The supernatant was aspirated as the extracted total cell protein; endogenous in cells; host or cells: human peripheral blood mononuclear cells (hPBMCs)
How it was run: as §1

IKZF2 = target: T3, IKZF2 (Homo sapiens, UniProt Q96SW2+Q9UKS7); assay: Western blot degradation of IKZF2 in hPBMCs (24 h)
T3 construct: The supernatant was aspirated as the extracted total cell protein; endogenous in cells; host or cells: human peripheral blood mononuclear cells (hPBMCs)
How it was run: as §1

IKZF1 = target: T4, IKZF1 (Homo sapiens, UniProt Q13422+Q96SW2); assay: Western blot degradation of IKZF1 in hPBMCs (24 h)
T4 construct: The supernatant was aspirated as the extracted total cell protein; endogenous in cells; host or cells: human peripheral blood mononuclear cells (hPBMCs)
How it was run: as §1

GSPT1 = target: T5, GSPT1 (Homo sapiens, UniProt P15170+Q96SW2); assay: Western blot degradation of GSPT1 in hPBMCs (24 h)
T5 construct: The supernatant was aspirated as the extracted total cell protein; endogenous in cells; host or cells: human peripheral blood mononuclear cells (hPBMCs)
How it was run: as §1

CK1α = target: T6, CK1α (Homo sapiens, UniProt P48729+Q96SW2); assay: Western blot degradation of CK1α in hPBMCs (24 h)
T6 construct: The supernatant was aspirated as the extracted total cell protein; endogenous in cells; host or cells: human peripheral blood mononuclear cells (hPBMCs)
How it was run: as §1

T2 sequence (P30291 whole entry): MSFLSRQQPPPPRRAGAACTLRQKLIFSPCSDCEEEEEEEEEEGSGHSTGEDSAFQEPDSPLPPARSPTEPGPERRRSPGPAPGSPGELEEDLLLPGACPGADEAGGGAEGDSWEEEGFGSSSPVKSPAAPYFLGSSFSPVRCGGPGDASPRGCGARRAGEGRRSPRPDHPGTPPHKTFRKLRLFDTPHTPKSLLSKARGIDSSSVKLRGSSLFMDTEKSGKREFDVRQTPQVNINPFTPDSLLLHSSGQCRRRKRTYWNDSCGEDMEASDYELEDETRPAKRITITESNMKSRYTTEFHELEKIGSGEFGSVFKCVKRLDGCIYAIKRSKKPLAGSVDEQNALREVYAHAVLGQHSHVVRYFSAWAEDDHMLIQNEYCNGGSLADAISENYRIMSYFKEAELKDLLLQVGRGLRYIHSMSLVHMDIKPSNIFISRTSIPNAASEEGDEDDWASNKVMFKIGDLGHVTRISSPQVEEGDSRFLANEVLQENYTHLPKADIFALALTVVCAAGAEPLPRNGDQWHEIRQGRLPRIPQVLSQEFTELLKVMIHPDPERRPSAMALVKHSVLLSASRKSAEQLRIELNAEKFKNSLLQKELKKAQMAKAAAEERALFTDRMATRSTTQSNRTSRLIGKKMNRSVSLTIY
T2 sequence (Q96SW2 whole entry): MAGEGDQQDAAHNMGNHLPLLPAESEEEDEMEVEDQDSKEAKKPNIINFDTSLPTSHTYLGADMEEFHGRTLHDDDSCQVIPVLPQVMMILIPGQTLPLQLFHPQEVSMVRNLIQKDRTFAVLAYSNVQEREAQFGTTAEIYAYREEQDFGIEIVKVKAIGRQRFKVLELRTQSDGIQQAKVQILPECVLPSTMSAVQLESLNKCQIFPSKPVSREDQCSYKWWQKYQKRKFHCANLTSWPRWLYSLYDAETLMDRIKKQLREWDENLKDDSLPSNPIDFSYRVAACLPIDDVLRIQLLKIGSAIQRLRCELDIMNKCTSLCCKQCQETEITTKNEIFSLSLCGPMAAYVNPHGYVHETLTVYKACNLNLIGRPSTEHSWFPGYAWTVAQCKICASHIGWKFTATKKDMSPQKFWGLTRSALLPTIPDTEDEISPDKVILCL
T2 sequence (Q16531 whole entry partner): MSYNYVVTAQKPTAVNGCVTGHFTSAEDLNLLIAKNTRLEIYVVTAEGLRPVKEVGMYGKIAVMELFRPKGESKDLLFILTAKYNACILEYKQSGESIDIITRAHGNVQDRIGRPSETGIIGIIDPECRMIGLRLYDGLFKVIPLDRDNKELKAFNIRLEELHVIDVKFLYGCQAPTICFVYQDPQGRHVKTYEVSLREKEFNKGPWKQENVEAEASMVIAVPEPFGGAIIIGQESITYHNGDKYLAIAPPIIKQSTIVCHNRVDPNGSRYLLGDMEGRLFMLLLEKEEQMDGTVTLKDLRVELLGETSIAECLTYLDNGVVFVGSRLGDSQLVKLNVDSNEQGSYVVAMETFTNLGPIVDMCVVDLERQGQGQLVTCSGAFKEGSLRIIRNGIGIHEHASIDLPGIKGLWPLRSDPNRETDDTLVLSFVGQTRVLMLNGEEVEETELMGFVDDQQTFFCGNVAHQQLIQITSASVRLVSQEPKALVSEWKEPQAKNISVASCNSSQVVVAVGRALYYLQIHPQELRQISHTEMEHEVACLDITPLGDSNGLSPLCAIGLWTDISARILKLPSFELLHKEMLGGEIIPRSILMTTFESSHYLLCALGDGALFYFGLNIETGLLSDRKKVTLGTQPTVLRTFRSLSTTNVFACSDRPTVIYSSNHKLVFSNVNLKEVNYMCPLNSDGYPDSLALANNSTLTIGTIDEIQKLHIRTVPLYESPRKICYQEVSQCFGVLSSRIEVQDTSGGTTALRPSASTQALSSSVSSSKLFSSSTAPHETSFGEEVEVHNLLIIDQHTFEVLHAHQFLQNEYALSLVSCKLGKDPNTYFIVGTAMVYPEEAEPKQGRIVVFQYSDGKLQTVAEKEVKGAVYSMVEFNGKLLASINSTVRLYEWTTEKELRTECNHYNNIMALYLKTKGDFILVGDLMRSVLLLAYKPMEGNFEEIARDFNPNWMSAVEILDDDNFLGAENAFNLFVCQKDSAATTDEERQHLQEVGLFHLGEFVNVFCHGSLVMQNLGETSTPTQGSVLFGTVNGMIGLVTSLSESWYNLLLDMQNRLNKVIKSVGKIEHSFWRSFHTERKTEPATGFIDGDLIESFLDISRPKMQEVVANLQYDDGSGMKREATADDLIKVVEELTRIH
T4 sequence (Q13422 whole entry): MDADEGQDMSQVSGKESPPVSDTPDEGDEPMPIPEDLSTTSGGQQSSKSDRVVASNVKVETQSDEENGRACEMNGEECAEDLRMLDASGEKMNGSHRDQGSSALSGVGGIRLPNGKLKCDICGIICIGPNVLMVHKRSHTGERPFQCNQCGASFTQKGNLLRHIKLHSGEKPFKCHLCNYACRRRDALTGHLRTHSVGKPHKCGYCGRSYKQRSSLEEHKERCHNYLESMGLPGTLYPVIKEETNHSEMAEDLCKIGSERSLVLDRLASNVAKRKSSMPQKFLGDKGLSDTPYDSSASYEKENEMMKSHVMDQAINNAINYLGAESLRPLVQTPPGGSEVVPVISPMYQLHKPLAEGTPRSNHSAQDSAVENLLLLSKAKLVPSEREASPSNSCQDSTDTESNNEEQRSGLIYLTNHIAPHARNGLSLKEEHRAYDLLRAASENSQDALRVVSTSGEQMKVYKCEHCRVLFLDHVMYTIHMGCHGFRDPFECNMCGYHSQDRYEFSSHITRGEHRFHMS
T4 sequence (Q96SW2 whole entry): as the sequence (Q96SW2 whole entry) above
T4 sequence (Q16531 whole entry partner): as the sequence (Q16531 whole entry partner) above
T5 sequence (P15170 whole entry): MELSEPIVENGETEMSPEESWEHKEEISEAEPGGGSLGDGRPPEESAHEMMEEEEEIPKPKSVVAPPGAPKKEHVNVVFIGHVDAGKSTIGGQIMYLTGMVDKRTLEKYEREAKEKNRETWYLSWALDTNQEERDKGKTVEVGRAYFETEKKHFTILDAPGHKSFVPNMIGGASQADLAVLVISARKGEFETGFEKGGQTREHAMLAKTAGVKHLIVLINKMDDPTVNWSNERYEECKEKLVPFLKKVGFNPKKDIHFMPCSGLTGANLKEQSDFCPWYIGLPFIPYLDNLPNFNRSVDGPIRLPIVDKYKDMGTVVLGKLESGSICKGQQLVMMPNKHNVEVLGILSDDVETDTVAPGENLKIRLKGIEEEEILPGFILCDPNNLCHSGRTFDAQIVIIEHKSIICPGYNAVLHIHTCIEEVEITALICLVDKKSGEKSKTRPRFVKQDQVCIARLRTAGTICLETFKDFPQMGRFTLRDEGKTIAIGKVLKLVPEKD
T5 sequence (Q96SW2 whole entry): as the sequence (Q96SW2 whole entry) above
T5 sequence (Q16531 whole entry partner): as the sequence (Q16531 whole entry partner) above
T3 sequence (Q9UKS7 whole entry): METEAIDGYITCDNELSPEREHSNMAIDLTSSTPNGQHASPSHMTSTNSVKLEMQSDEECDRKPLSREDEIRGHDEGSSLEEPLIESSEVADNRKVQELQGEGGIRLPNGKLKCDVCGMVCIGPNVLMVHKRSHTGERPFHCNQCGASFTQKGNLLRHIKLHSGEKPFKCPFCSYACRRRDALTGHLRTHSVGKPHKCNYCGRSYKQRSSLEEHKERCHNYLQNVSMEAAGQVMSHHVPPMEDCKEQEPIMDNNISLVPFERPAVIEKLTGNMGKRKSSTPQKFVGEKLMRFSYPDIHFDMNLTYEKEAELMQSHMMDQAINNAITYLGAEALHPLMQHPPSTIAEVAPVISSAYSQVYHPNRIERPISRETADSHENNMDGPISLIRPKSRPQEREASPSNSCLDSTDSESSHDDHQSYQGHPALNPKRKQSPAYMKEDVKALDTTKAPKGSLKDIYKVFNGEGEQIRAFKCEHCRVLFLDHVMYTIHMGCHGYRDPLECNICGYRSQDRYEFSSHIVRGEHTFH
T3 sequence (Q96SW2 whole entry): as the sequence (Q96SW2 whole entry) above
T3 sequence (Q16531 whole entry partner): as the sequence (Q16531 whole entry partner) above
T6 sequence (P48729 whole entry): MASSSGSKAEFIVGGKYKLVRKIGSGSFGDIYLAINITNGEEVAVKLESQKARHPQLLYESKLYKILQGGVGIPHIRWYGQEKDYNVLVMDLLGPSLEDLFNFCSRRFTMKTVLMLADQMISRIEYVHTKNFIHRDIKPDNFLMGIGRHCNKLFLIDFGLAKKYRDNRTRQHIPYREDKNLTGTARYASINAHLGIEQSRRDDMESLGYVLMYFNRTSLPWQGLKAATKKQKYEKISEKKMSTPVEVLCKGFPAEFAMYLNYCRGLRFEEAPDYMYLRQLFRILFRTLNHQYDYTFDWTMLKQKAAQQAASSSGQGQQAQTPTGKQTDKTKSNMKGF
T6 sequence (Q96SW2 whole entry): as the sequence (Q96SW2 whole entry) above
T6 sequence (Q16531 whole entry partner): as the sequence (Q16531 whole entry partner) above

For `O=C1CCN(N2C(=O)c3ccc(CN4CC5CCC4CN5c4cccc(Cl)c4Cl)cc3C2=O)C(=O)N1` (stereo not drawn) [GT-07436, 5-((5-(2,3-dichlorophenyl)-2,5-diazabicyclo[2.2.2]octan-2-yl)methyl)-2-(2,4-dioxotetrahydropyrimidin-1(2H)-yl)isoindoline-1,3-dione], the “IKZF3 substrate protein remaining %” value (IKZF3) was “B (80%< substrate protein remaining % ≤100%)”, the “WEE1 substrate protein remaining %” value (WEE1) was “B (80%< substrate protein remaining % ≤100%)” and the “IKZF2 substrate protein remaining %” value (IKZF2) was “A (0% ≤ substrate protein remaining % ≤80%)”. For the same molecule, the “IKZF1 substrate protein remaining %” value (IKZF1) was “B (80%< substrate protein remaining % ≤100%)”, the “GSPT1 substrate protein remaining %” value (GSPT1) was “B (80%< substrate protein remaining % ≤100%)” and the “CK1α substrate protein remaining %” value (CK1α) was “A (0% ≤ substrate protein remaining % ≤80%)”.
For `O=C1CCN(N2C(=O)c3ccc(CN4CCN(c5nc(N6CCOCC6)nc6c5SCC6)CC4)cc3C2=O)C(=O)N1` [GT-08450, 2-(2,4-dioxotetrahydropyrimidin-1(2H)-yl)-5-((4-(2-morpholino-6,7-dihydrothieno[3,2-d]pyrimidin-4-yl)piperazin-1-yl)methyl)isoindoline-1,3-dione], the “IKZF3 substrate protein remaining %” value (IKZF3) was “B (80%< substrate protein remaining % ≤100%)”, the “WEE1 substrate protein remaining %” value (WEE1) was “B (80%< substrate protein remaining % ≤100%)” and the “IKZF2 substrate protein remaining %” value (IKZF2) was “B (80%< substrate protein remaining % ≤100%)”. The “IKZF1 substrate protein remaining %” value (IKZF1) was “B (80%< substrate protein remaining % ≤100%)”, the “GSPT1 substrate protein remaining %” value (GSPT1) was “A (0% ≤ substrate protein remaining % ≤80%)” and the “CK1α substrate protein remaining %” value (CK1α) was “B (80%< substrate protein remaining % ≤100%)”.
`O=C1CCN(N2Cc3cc(CN4CCN(Cc5ccc(C67CC8CC(CC(C8)C6)C7)cc5)CC4)ccc3C2=O)C(=O)N1` [GT-07721, 1-(5-((4-(4-((3r,5r,7r)-adamantan-1-yl)benzyl)piperazin-1-yl)methyl)-1-oxoisoindolin-2-yl)dihydropyrimidine-2,4(1H,3H)-dione] was tested, and the “IKZF3 substrate protein remaining %” value (IKZF3) was “A (0% ≤ substrate protein remaining % ≤80%)”, the “WEE1 substrate protein remaining %” value (WEE1) was “A (0% ≤ substrate protein remaining % ≤80%)” and the “IKZF2 substrate protein remaining %” value (IKZF2) was “A (0% ≤ substrate protein remaining % ≤80%)”. For the same molecule, the “IKZF1 substrate protein remaining %” value (IKZF1) was “A (0% ≤ substrate protein remaining % ≤80%)”, the “GSPT1 substrate protein remaining %” value (GSPT1) was “A (0% ≤ substrate protein remaining % ≤80%)” and the “CK1α substrate protein remaining %” value (CK1α) was “A (0% ≤ substrate protein remaining % ≤80%)”.
`Cc1sc2ncnc(N3CCN(Cc4ccc5c(c4)C(=O)N(N4CCC(=O)NC4=O)C5=O)CC3)c2c1C` [GT-08094, 5-((4-(5,6-dimethylthieno[2,3-d]pyrimidin-4-yl)piperazin-1-yl)methyl)-2-(2,4-dioxotetrahydropyrimidin-1(2H)-yl)isoindoline-1,3-dione] was tested, and the “IKZF3 substrate protein remaining %” value (IKZF3) was “B (80%< substrate protein remaining % ≤100%)”, the “WEE1 substrate protein remaining %” value (WEE1) was “A (0% ≤ substrate protein remaining % ≤80%)” and the “IKZF2 substrate protein remaining %” value (IKZF2) was “B (80%< substrate protein remaining % ≤100%)”. For the same molecule, the “IKZF1 substrate protein remaining %” value (IKZF1) was “B (80%< substrate protein remaining % ≤100%)”, the “GSPT1 substrate protein remaining %” value (GSPT1) was “A (0% ≤ substrate protein remaining % ≤80%)” and the “CK1α substrate protein remaining %” value (CK1α) was “A (0% ≤ substrate protein remaining % ≤80%)”.
`Cc1cc(C2CCN(Cc3ccc4c(c3)CN(N3CCC(=O)NC3=O)C4=O)CC2)cs1` [GT-07373, 1-(5-((4-(5-methylthiophen-3-yl)piperidin-1-yl)methyl)-1-oxoisoindolin-2-yl)dihydropyrimidine-2,4(1H,3H)-dione] was tested, and the “IKZF3 substrate protein remaining %” value (IKZF3) was “A (0% ≤ substrate protein remaining % ≤80%)”, the “WEE1 substrate protein remaining %” value (WEE1) was “B (80%< substrate protein remaining % ≤100%)” and the “IKZF2 substrate protein remaining %” value (IKZF2) was “B (80%< substrate protein remaining % ≤100%)”. The “IKZF1 substrate protein remaining %” value (IKZF1) was “B (80%< substrate protein remaining % ≤100%)”, the “GSPT1 substrate protein remaining %” value (GSPT1) was “A (0% ≤ substrate protein remaining % ≤80%)” and the “CK1α substrate protein remaining %” value (CK1α) was “B (80%< substrate protein remaining % ≤100%)”.
`O=C1CCN(N2Cc3cc(CN4CCC(c5ccc(Br)cc5)CC4)ccc3C2=O)C(=O)N1` [GT-06886, 1-(5-((4-(4-bromophenyl)piperidin-1-yl)methyl)-1-oxoisoindolin-2-yl)dihydropyrimidine-2,4(1H,3H)-dione] was tested, and the “IKZF3 substrate protein remaining %” value (IKZF3) was “B (80%< substrate protein remaining % ≤100%)”, the “WEE1 substrate protein remaining %” value (WEE1) was “B (80%< substrate protein remaining % ≤100%)” and the “IKZF2 substrate protein remaining %” value (IKZF2) was “A (0% ≤ substrate protein remaining % ≤80%)”. The “IKZF1 substrate protein remaining %” value (IKZF1) was “B (80%< substrate protein remaining % ≤100%)”, the “GSPT1 substrate protein remaining %” value (GSPT1) was “A (0% ≤ substrate protein remaining % ≤80%)” and the “CK1α substrate protein remaining %” value (CK1α) was “B (80%< substrate protein remaining % ≤100%)”.
`O=C1CCN(N2Cc3cc(CN4CCC(c5ncnc6sc(-c7ccccc7)cc56)CC4)ccc3C2=O)C(=O)N1` [GT-08085, 1-(1-oxo-5-((4-(6-phenylthieno[2,3-d]pyrimidin-4-yl)piperidin-1-yl)methyl)isoindolin-2-yl)dihydropyrimidine-2,4(1H,3H)-dione] was tested, and the “IKZF3 substrate protein remaining %” value (IKZF3) was “B (80%< substrate protein remaining % ≤100%)”, the “WEE1 substrate protein remaining %” value (WEE1) was “B (80%< substrate protein remaining % ≤100%)” and the “IKZF2 substrate protein remaining %” value (IKZF2) was “B (80%< substrate protein remaining % ≤100%)”. The “IKZF1 substrate protein remaining %” value (IKZF1) was “B (80%< substrate protein remaining % ≤100%)”, the “GSPT1 substrate protein remaining %” value (GSPT1) was “A (0% ≤ substrate protein remaining % ≤80%)” and the “CK1α substrate protein remaining %” value (CK1α) was “A (0% ≤ substrate protein remaining % ≤80%)”.
In the case of `O=C1CCN(N2C(=O)c3ccc(CN4CCN(c5ncccn5)CC4)cc3C2=O)C(=O)N1` [GT-07285, 2-(2,4-dioxotetrahydropyrimidin-1(2H)-yl)-5-((4-(pyrimidin-2-yl)piperazin-1-yl)methyl)isoindoline-1,3-dione], the “IKZF3 substrate protein remaining %” value (IKZF3) was “B (80%< substrate protein remaining % ≤100%)”, the “WEE1 substrate protein remaining %” value (WEE1) was “A (0% ≤ substrate protein remaining % ≤80%)” and the “IKZF2 substrate protein remaining %” value (IKZF2) was “B (80%< substrate protein remaining % ≤100%)”. For the same molecule, the “IKZF1 substrate protein remaining %” value (IKZF1) was “A (0% ≤ substrate protein remaining % ≤80%)”, the “GSPT1 substrate protein remaining %” value (GSPT1) was “B (80%< substrate protein remaining % ≤100%)” and the “CK1α substrate protein remaining %” value (CK1α) was “B (80%< substrate protein remaining % ≤100%)”.
In the case of `O=C1CCN(N2Cc3cc(CN4CC(C5CCOc6cc(F)ccc65)C4)ccc3C2=O)C(=O)N1` (stereo not drawn) [GT-07690, 1-(5-((3-(7-fluorochroman-4-yl)azetidin-1-yl)methyl)-1-oxoisoindolin-2-yl)dihydropyrimidine-2,4(1H,3H)-dione], the “IKZF3 substrate protein remaining %” value (IKZF3) was “B (80%< substrate protein remaining % ≤100%)”, the “WEE1 substrate protein remaining %” value (WEE1) was “B (80%< substrate protein remaining % ≤100%)” and the “IKZF2 substrate protein remaining %” value (IKZF2) was “A (0% ≤ substrate protein remaining % ≤80%)”. The “IKZF1 substrate protein remaining %” value (IKZF1) was “B (80%< substrate protein remaining % ≤100%)”, the “GSPT1 substrate protein remaining %” value (GSPT1) was “A (0% ≤ substrate protein remaining % ≤80%)” and the “CK1α substrate protein remaining %” value (CK1α) was “A (0% ≤ substrate protein remaining % ≤80%)”.
`O=C1CCN(N2C(=O)c3ccc(CN4CCN(c5ccccc5Br)CC4)cc3C2=O)C(=O)N1` [GT-06727, 5-((4-(2-bromophenyl)piperazin-1-yl)methyl)-2-(2,4-dioxotetrahydropyrimidin-1(2H)-yl)isoindoline-1,3-dione] was tested, and the “IKZF3 substrate protein remaining %” value (IKZF3) was “A (0% ≤ substrate protein remaining % ≤80%)”, the “WEE1 substrate protein remaining %” value (WEE1) was “B (80%< substrate protein remaining % ≤100%)” and the “IKZF2 substrate protein remaining %” value (IKZF2) was “A (0% ≤ substrate protein remaining % ≤80%)”. For the same molecule, the “IKZF1 substrate protein remaining %” value (IKZF1) was “B (80%< substrate protein remaining % ≤100%)”, the “GSPT1 substrate protein remaining %” value (GSPT1) was “B (80%< substrate protein remaining % ≤100%)” and the “CK1α substrate protein remaining %” value (CK1α) was “A (0% ≤ substrate protein remaining % ≤80%)”.
`O=C1CCN(N2C(=O)c3ccc(CN4CC=C(c5cccc(F)c5Cl)CC4)cc3C2=O)C(=O)N1` [GT-06896, 5-((4-(2-chloro-3-fluorophenyl)-3,6-dihydropyridin-1(2H)-yl)methyl)-2-(2,4-dioxotetrahydropyrimidin-1(2H)-yl)isoindoline-1,3-dione] was tested, and the “IKZF3 substrate protein remaining %” value (IKZF3) was “B (80%< substrate protein remaining % ≤100%)”, the “WEE1 substrate protein remaining %” value (WEE1) was “B (80%< substrate protein remaining % ≤100%)” and the “IKZF2 substrate protein remaining %” value (IKZF2) was “B (80%< substrate protein remaining % ≤100%)”. The “IKZF1 substrate protein remaining %” value (IKZF1) was “A (0% ≤ substrate protein remaining % ≤80%)”, the “GSPT1 substrate protein remaining %” value (GSPT1) was “B (80%< substrate protein remaining % ≤100%)” and the “CK1α substrate protein remaining %” value (CK1α) was “B (80%< substrate protein remaining % ≤100%)”.
`COc1ccccc1N1CCN(Cc2ccc3c(c2)C(=O)N(N2CCC(=O)NC2=O)C3=O)CC1` [GT-06720, 2-(2,4-dioxotetrahydropyrimidin-1(2H)-yl)-5-((4-(2-methoxyphenyl)piperazin-1-yl)methyl)isoindoline-1,3-dione] was tested, and the “IKZF3 substrate protein remaining %” value (IKZF3) was “A (0% ≤ substrate protein remaining % ≤80%)”, the “WEE1 substrate protein remaining %” value (WEE1) was “B (80%< substrate protein remaining % ≤100%)” and the “IKZF2 substrate protein remaining %” value (IKZF2) was “B (80%< substrate protein remaining % ≤100%)”. The “IKZF1 substrate protein remaining %” value (IKZF1) was “B (80%< substrate protein remaining % ≤100%)”, the “GSPT1 substrate protein remaining %” value (GSPT1) was “B (80%< substrate protein remaining % ≤100%)” and the “CK1α substrate protein remaining %” value (CK1α) was “B (80%< substrate protein remaining % ≤100%)”.
